From ChEMBL document CHEMBL1151130, “Oxygenated Furanosesterterpene Tetronic Acids from a Sponge of the Genus Ircinia” (J Nat Prod, 1988) come the findings set out here.

Active and inactive are the calls of the source. No cut-off for these calls is given here.

The subject of data set [1] is Human alphaherpesvirus 1. Nature of the data set: Antiviral activity against HSV1 infected in […] cells at 20 ug/disk. It counts as functional, organism-based.
In data set [2] the test system is Poliovirus 1. Nature of the data set: Antiviral activity against Poliovirus type 1 infected in […] cells at 20 ug/disk. In kind it is functional, organism-based.
Data set [3] concerns Human alphaherpesvirus 1. Nature of the data set: Antiviral activity against HSV1 infected in […] cells at 2 ug/disk. In kind it is functional, organism-based.
Data set [4] has as its system Poliovirus 1. In words: Antiviral activity against Poliovirus type 1 infected in […] cells at 2 ug/disk. In kind it is functional, organism-based.
Data set [5] is described as follows: Cytotoxicity against […] cells at 2 ug/disk. In kind it is cell-based.

For the compound `CC1=C(O)/C(=C/[C@@H](C)CCC/C(C)=C/CCC(C)(O)CCCc2ccoc2)OC1=O` (stereo partly drawn), the result in the data set with Human alphaherpesvirus 1 [1] and with Poliovirus 1 [2] was inactive.

For the compound `COC1=C(C)C(=O)O/C1=C\[C@@H](C)CCC/C(C)=C/CC/C(C)=C/CC(=O)c1ccoc1`, the outcome with Human alphaherpesvirus 1 [3] and in the data set with Poliovirus 1 [4] was inactive.

As for `CC1=C(O)/C(=C/[C@@H](C)CCC/C(C)=C/CC/C(C)=C/CCc2ccoc2)OC1=O`, in data set [5], the Activity entry was “Toxic”.

For `COC1=C(C)C(=O)O/C1=C\[C@@H](C)CCC/C(C)=C/CCC(C)(O)CCCc1ccoc1` (stereo partly drawn), the result in the data set on Human alphaherpesvirus 1 [1] and in the data set with Poliovirus 1 [2] was inactive.

`COC1=C(C)C(=O)O/C1=C\[C@@H](C)CCC/C(C)=C/C/C=C(\C)CCC(=O)c1ccoc1`: the result with Human alphaherpesvirus 1 [3] and in the data set with Poliovirus 1 [4] was inactive.

As to `COC1=C(C)C(=O)O/C1=C\[C@@H](C)CCC/C(C)=C/CC/C(C)=C/CCc1ccoc1`, the outcome with Human alphaherpesvirus 1 [1] and in the data set on Poliovirus 1 [2] was inactive.

As for `C=C(CC/C=C(\C)CCC(=O)c1ccoc1)CCC[C@H](C)/C=C1\OC(=O)C(C)=C1OC`, the outcome in the data set on Human alphaherpesvirus 1 [3] and with Poliovirus 1 [4] was inactive.
